Data: patent publication US9006250B2, “4-amino-6-(heterocyclic)picolinates and 6-amino-2-(heterocyclic)pyrimidine-4-carboxylates and their use as herbicides” (Dow AgroSciences, LLC, priority 2013, dated 2015)

Experiments:
[1] = tested on: CHEAL: lambsquarters (Chenopodium album); assay: Post-Emergent Test II herbicidal activity; assay type: in vivo; conditions: post-emergence, 336 h, 14 days, read-out: Visual Growth Reduction (%) 14 Days After Application CHEAL
Summary of the method: (§1)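 Seedlings raised 7-21 d under greenhouse conditions were treated at the first or second true leaf stage. Compounds, formulated with crop oil concentrate and surfactant, were applied overhead at 187 L/ha across a serial dilution series, with solvent-blank controls. Percent visual injury was scored after 14 d.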

[2] = tested on: ECHCG: barnyardgrass (Echinochloa crus-galli); assay: Post-Emergent Test II herbicidal activity; assay type: in vivo; conditions: post-emergence, 336 h, 14 days, read-out: Visual Growth Reduction (%) 14 Days After Application ECHCG
Summary of the method: as §1

[3] = tested on: ABUTH: velvetleaf (Abutilon theophrasti); assay: Post-Emergent Test II herbicidal activity; assay type: in vivo; conditions: post-emergence, 336 h, 14 days, read-out: Visual Growth Reduction (%) 14 Days After Application ABUTH
Summary of the method: as §1

[4] = tested on: AMARE: redroot pigweed (Amaranthus retroflexus); assay: Post-Emergent Test II herbicidal activity; assay type: in vivo; conditions: post-emergence, 336 h, 14 days, read-out: Visual Growth Reduction (%) 14 Days After Application AMARE
Summary of the method: as §1

[5] = tested on: CYPES: yellow nutsedge (Cyperus esculentus); assay: Post-Emergent Test II herbicidal activity; assay type: in vivo; conditions: post-emergence, 336 h, 14 days, read-out: Visual Growth Reduction (%) 14 Days After Application CYPES
Summary of the method: as §1

[6] = tested on: HELAN: sunflower (Helianthus annuus); assay: Post-Emergent Test II herbicidal activity; assay type: in vivo; conditions: post-emergence, 336 h, 14 days, read-out: Visual Growth Reduction (%) 14 Days After Application HELAN
Summary of the method: as §1

[7] = tested on: BRSNN: oilseed rape, canola (Brassica napus); assay: Post-Emergent Test II herbicidal activity; assay type: in vivo; conditions: post-emergence, 336 h, 14 days, read-out: Visual Growth Reduction (%) 14 Days After Application BRSNN
Summary of the method: as §1

[8] = tested on: ZEAMX: maize, corn (Zea mays); assay: Post-Emergent Test II herbicidal activity; assay type: in vivo; conditions: post-emergence, 336 h, 14 days, read-out: Visual Growth Reduction (%) 14 Days After Application ZEAMX
Summary of the method: as §1

[9] = tested on: EPHHL: wild poinsettia (Euphorbia heterophylla); assay: Post-Emergent Test II herbicidal activity; assay type: in vivo; conditions: post-emergence, 336 h, 14 days, read-out: Visual Growth Reduction (%) 14 Days After Application EPHHL
Summary of the method: as §1

[10] = tested on: TRZAS: wheat, spring (Triticum aestivum); assay: Post-Emergent Test II herbicidal activity; assay type: in vivo; conditions: post-emergence, 336 h, 14 days, read-out: Visual Growth Reduction (%) 14 Days After Application TRZAS
Summary of the method: as §1

[11] = tested on: SETFA: giant foxtail (Setaria faberi); assay: Post-Emergent Test II herbicidal activity; assay type: in vivo; conditions: post-emergence, 336 h, 14 days, read-out: Visual Growth Reduction (%) 14 Days After Application SETFA
Summary of the method: as §1

[12] = tested on: ORYSA: rice (Oryza sativa); assay: Post-Emergent Test II herbicidal activity; assay type: in vivo; conditions: post-emergence, 336 h, 14 days, read-out: Visual Growth Reduction (%) 14 Days After Application ORYSA
Summary of the method: as §1

Compound: COC(=O)c1nc(-c2ccc3nsnc3c2)c(F)c(N)c1Cl [Compound 11]
- melting point: 196 to 198 °C
- pest or weed control at 35 g/ha ([1]; 35 g ai/ha): 85 to 94%
- pest or weed control at 70 g/ha ([1]; 70 g ai/ha): 95 to 100%
- pest or weed control at 140 g/ha ([1]; 140 g ai/ha): 95 to 100%
- pest or weed control at 35 g/ha ([2]; 35 g ai/ha): 85 to 94%
- pest or weed control at 70 g/ha ([2]; 70 g ai/ha): 95 to 100%
- pest or weed control at 140 g/ha ([2]; 140 g ai/ha): 95 to 100%
- pest or weed control at 35 g/ha ([3]; 35 g ai/ha): 85 to 94%
- pest or weed control at 70 g/ha ([3]; 70 g ai/ha): 95 to 100%
- pest or weed control at 140 g/ha ([3]; 140 g ai/ha): 95 to 100%
- pest or weed control at 35 g/ha ([4]; 35 g ai/ha): 95 to 100%
- pest or weed control at 70 g/ha ([4]; 70 g ai/ha): 95 to 100%
- pest or weed control at 140 g/ha ([4]; 140 g ai/ha): 95 to 100%
- pest or weed control at 35 g/ha ([5]; 35 g ai/ha): 95 to 100%
- pest or weed control at 70 g/ha ([5]; 70 g ai/ha): 95 to 100%
- pest or weed control at 140 g/ha ([5]; 140 g ai/ha): 95 to 100%
- pest or weed control at 35 g/ha ([6]; 35 g ai/ha): 85 to 94%
- pest or weed control at 70 g/ha ([6]; 70 g ai/ha): 85 to 94%
- pest or weed control at 140 g/ha ([6]; 140 g ai/ha): 95 to 100%
- pest or weed control at 35 g/ha ([7]; 35 g ai/ha): 60 to 74%
- pest or weed control at 70 g/ha ([7]; 70 g ai/ha): 75 to 84%
- pest or weed control at 140 g/ha ([7]; 140 g ai/ha): 75 to 84%
- pest or weed control at 35 g/ha ([8]; 35 g ai/ha): 60 to 74%
- pest or weed control at 70 g/ha ([8]; 70 g ai/ha): 60 to 74%
- pest or weed control at 140 g/ha ([8]; 140 g ai/ha): 75 to 84%
- pest or weed control at 35 g/ha ([9]; 35 g ai/ha): 95 to 100%
- pest or weed control at 70 g/ha ([9]; 70 g ai/ha): 95 to 100%
- pest or weed control at 140 g/ha ([9]; 140 g ai/ha): 95 to 100%
- pest or weed control at 35 g/ha ([10]; 35 g ai/ha): 0 to 29%
- pest or weed control at 70 g/ha ([10]; 70 g ai/ha): 0 to 29%
- pest or weed control at 140 g/ha ([10]; 140 g ai/ha): 0 to 29%
- pest or weed control at 35 g/ha ([11]; 35 g ai/ha): 45 to 59%
- pest or weed control at 70 g/ha ([11]; 70 g ai/ha): 85 to 94%
- pest or weed control at 140 g/ha ([11]; 140 g ai/ha): 85 to 94%
- pest or weed control at 35 g/ha ([12]; 35 g ai/ha): 0 to 29%
- pest or weed control at 70 g/ha ([12]; 70 g ai/ha): 0 to 29%
- pest or weed control at 140 g/ha ([12]; 140 g ai/ha): 0 to 29%
